The source of these data is patent US12063914B2, “DNA sequence that increases odorant receptor representation in the olfactory system” (Research Foundation of the City University of New York, priority 2015, dated 2024).

The target of data set [1] is T1, M71 OR (Mus musculus, UniProt Q60893).
T1 construct: the increase of OSNs expressing the M71 OR results in the coalescence of labeled axons; expressed in transfected cells; host or cells: olfactory sensory neurons of living transgenic mice (4•M71Cα, 5•M71Cα), made by pronuclear injection of the M71 minigene
T1 sequence (Q60893 1-309): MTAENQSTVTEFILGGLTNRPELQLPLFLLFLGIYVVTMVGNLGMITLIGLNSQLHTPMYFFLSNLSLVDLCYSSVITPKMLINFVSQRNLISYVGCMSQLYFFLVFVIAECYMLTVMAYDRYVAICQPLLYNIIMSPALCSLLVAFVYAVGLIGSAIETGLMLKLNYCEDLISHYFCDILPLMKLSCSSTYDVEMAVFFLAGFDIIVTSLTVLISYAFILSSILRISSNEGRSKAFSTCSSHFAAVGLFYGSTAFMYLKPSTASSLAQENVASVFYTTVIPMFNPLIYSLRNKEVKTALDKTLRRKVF
Put plainly: Two-bottle discrimination behavioral avoidance task (odor detection threshold) with 24dMACP. It is filed as in vivo. To be noted: naïve, 10^−6 dilution, 24 hr.

The next data set has as its target T2, M71 (Mus musculus, UniProt Q60893).
T2 construct: from ex vivo analysis of genetically defined M71 OSNs in gene-targeted mice; host or cells: dendritic knobs of M71-expressing olfactory sensory neurons from gene-targeted mice
T2 sequence (Q60893 1-309): T1 sequence (Q60893 1-309)
To be noted: previous ex vivo data; liquid phase; cited from earlier work.

Data set [2] has as its target T1, M71 OR. Kind of data set: Two-bottle discrimination behavioral avoidance task (odor detection threshold) with 24dMACP. The format is in vivo. As for the experimental part: Sensitivity studies performed in Wistar rat neonates and adults have shown that the highest sensitivity to an odor (lowest threshold) correlates with the highest OSN density in the MOE. […] Therefore, it was desirable to assess whether detection of the most robust M71 ligand is amplified in this M71 line. An avoidance task was used in which the odorant 24dMACP is added to drinking water and becomes an aversive stimulus associated with injection of Lithium Chloride (LiCl), a compound known to induce gastric malaise. After conditioning homozygous 4•M71Cα animals and their WT littermates to water containing a 10-4 dilution of 24dMACP, the animals are given the choice between plain water and water with decreasing concentrations of 24dMACP (10^−4, 10^−6, 5×10^−7 and 10^−7). Note that all tested animals are homozygous for M71G, so even WT have a functional M71 OR.
The results are presented as a preference index (PI) for the odorized water for each group of animals which is calculated as the amount of the odorized water consumed divided by the total amount of liquid (odor and no-odor water) consumed over a 24 hr time period (FIG. 3A). A PI of 50% reflects no preference of the animal. […] When presented with 10^−4 and 10^−6 dilutions, both conditioned 4•M71Cα homo and WT animals show a clear aversion towards 24dMACP reflected through an average PI for 24dMACP of about 10%. However, when 24dMACP is delivered at 10^−7 all animals fail to detect the presence of the odor with an average PI of 53.41% for the WT (n=4) and 62.67% for the homozygous animals (n=8).
To compare specific odorant sensitivity between the 5•M71Cα and the 4•M71Cα line, the 2-bottle discrimination behavioral task was performed with 24dMACP as described above (FIG. 3B). […] Even though the same but slightly more significant 0.3 log decrease in odorant detection threshold is observed in the 5•M71Cα line, it is important to mention that 5•M71Cα hemi animals were used which have about 1.6% of their OSNs expressing M71 (similar to the 4•M71Cα homo animals with about 2% M71 expressing OSNs).
Olfactory behavior test: A two-bottle discrimination test was performed as previously described. Since the mice are tested for the ability to detect a single odor in drinking water at increasingly lower concentrations, this discrimination assay is also considered a detection threshold test. Mice 8 weeks old were individually housed and given food ad libitum but restricted access to saccharin-phthalic acid solution (2.1×10^−2 M sodium saccharin and 10^−3M phthalic acid pH 6.5) for 1 h twice a day for two days before the assay begins. This ensures mice would commence drinking the solution during the conditioning. On day 3 (conditioning day) mice are exposed to sodium saccharine phthalic acid (SSPA) solution with 1 dilution of odorized water for 10 minutes. Immediately after, they are injected with lithium chloride intraperitoneally (15 μl/g body weight of a 0.6 M solution) to induce the aversive malaise and lethargy state. After two hours mice are returned to their home cage and given access to two bottles of drinking water; they are given the choice between SSPA solution containing a 10^−4 dilution of the odor versus the non-odorized SSPA solution. During the following 3 days, every 24 hours, the location of the bottles is reversed and the concentration of the odorized solution is decreased to 10^−6, 10^−7 and 0.5×10^−6, respectively. Every day both bottles are weighed to determine the amount of liquid consumed. A preference index was calculated as the amount of odorized solution consumed divided by the total amount of water solution consumed for each mouse for every 24 hour test period at each odor concentration. Student's t test was performed to test statistical significance, assuming two-tailed distribution and two-sample unequal variance. Values are mean±SEM and are plotted on a LOG scale.

For data set [3] the following is noted: at 25° C.; cited from earlier work.

Molecules are shown by their SMILES.

For `CC(=O)c1ccc(C)cc1C` [24dMACP, 2,4-dimethyl acetophenone], the “preference index (PI) for odorized water” value on M71 OR [1] (unconditioned 4•M71Cα Homo mice) amounted to 59%; at M71 OR [1] (unconditioned WT mice), 60%. Besides, the “elicit a M71 response ex vivo” value at M71 is recorded as “did”. For the same compound, the “average PI” value at M71 OR [2] (5•M71Cα hemi group, dilution 5×10^−7) is listed as 19.62%; on M71 OR [2] (WT group of the 5•M71Cα experiment, dilution 5×10^−7), 55.32%; at M71 OR [2] (conditioned 4•M71Cα homo and WT animals, 10^−4 and 10^−6 dilutions), “about 10%”; on M71 OR [2] (conditioned 4•M71Cα homozygous, 10^−7 dilution), 62.67%; at M71 OR [2] (conditioned WT, 10^−7 dilution) it was 53.41%. For the same compound, the “decrease in odorant detection threshold” value at M71 OR [2] (5•M71Cα line vs WT (same as 4•M71Cα line)) is 0.3 log. Moreover, the PI was found to be 26.12% at M71 OR [2] (conditioned 4•M71Cα homozygous mutants, 5×10^−7 dilution); 62.79% on M71 OR [2] (conditioned WT (littermates of 4•M71Cα), 5×10^−7 dilution); 11.84% at M71 OR [2] (conditioned WT, 10^−4 dilution). Also, the “saturated vapor pressure (Ps)” value in data set [3] was 0.0811 mmHg.
